Results: ChEMBL document CHEMBL5696441 (Nat Chem Biol, 2011)

Experiments:
[1] = target: 5'-AMP-activated protein kinase catalytic subunit alpha-2 (Homo sapiens) (UniProt P54646); assay: Inhibition of AMPK-alpha2 (unknown origin) assessed as remaining activity at 1 uM by Kinome scan method relative to control
[2] = target: Ankyrin repeat and protein kinase domain-containing protein 1 (Homo sapiens) (UniProt Q8NFD2); assay: Inhibition of ANKK1 (unknown origin) assessed as remaining activity at 1 uM by Kinome scan method relative to control
Chain of Ankyrin repeat and protein kinase domain-containing protein 1 (Homo sapiens) (Q8NFD2 whole entry, the tested form may be a part): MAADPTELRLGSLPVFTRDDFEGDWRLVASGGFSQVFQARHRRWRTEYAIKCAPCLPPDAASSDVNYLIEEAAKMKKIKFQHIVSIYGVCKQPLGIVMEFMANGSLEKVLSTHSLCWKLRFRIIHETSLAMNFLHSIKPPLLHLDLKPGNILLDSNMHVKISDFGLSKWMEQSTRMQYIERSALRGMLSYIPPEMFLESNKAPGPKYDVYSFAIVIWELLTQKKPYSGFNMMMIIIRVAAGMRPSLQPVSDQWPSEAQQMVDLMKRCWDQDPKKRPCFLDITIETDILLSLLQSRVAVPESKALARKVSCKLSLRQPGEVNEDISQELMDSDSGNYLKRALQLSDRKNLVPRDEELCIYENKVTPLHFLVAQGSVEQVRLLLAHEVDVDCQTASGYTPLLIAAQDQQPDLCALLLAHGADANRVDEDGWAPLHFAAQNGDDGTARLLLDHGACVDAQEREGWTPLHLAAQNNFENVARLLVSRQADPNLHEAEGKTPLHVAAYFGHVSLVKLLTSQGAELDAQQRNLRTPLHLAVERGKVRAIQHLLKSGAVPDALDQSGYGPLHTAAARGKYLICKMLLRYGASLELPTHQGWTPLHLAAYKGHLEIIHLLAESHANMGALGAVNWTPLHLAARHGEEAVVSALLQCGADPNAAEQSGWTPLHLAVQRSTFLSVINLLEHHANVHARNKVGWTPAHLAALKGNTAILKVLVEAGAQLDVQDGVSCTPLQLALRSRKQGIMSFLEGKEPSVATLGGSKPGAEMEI

[3] = target: T1, Aurora kinase C (Homo sapiens) (UniProt Q9UQB9); assay: Inhibition of AURKC (unknown origin) assessed as remaining activity at 1 uM by Kinome scan method relative to control
T1 sequence (whole entry): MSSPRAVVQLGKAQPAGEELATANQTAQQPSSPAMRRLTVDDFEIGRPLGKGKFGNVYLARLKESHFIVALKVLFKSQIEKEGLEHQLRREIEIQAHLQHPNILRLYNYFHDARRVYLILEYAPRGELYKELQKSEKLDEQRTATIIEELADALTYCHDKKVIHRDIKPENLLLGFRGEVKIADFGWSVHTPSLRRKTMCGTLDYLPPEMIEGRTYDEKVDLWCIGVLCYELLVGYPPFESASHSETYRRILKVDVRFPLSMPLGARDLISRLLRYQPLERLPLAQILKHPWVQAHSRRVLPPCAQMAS

[4] = target: Cyclin-dependent kinase-like 5 (Homo sapiens) (UniProt O76039); assay: Inhibition of CDKL5 (unknown origin) assessed as remaining activity at 1 uM by Kinome scan method relative to control
[5] = target: Casein kinase I isoform gamma-1 (Homo sapiens) (UniProt Q9HCP0); assay: Inhibition of CSNK1G1 (unknown origin) assessed as remaining activity at 1 uM by Kinome scan method relative to control
[6] = target: Tyrosine-protein kinase JAK2 (Homo sapiens) (UniProt O60674); assay: Inhibition of JAK2 JH1 domain (unknown origin) assessed as remaining activity at 1 uM by Kinome scan method relative to control
[7] = target: LIM domain kinase 2 (Homo sapiens) (UniProt P53671); assay: Inhibition of LIMK2 (unknown origin) assessed as remaining activity at 1 uM by Kinome scan method relative to control
[8] = target: Mitogen-activated protein kinase kinase kinase 15 (Homo sapiens) (UniProt Q6ZN16); assay: Inhibition of MAP3K15 (unknown origin) assessed as remaining activity at 1 uM by Kinome scan method relative to control
[9] = target: Serine/threonine-protein kinase MARK2 (Homo sapiens) (UniProt Q7KZI7); assay: Inhibition of MARK2 (unknown origin) assessed as remaining activity at 1 uM by Kinome scan method relative to control
[10] = target: Misshapen-like kinase 1 (Homo sapiens) (UniProt Q8N4C8); assay: Inhibition of MINK (unknown origin) assessed as remaining activity at 1 uM by Kinome scan method relative to control
Chain of Misshapen-like kinase 1 (Homo sapiens) (Q8N4C8 whole entry, looked up): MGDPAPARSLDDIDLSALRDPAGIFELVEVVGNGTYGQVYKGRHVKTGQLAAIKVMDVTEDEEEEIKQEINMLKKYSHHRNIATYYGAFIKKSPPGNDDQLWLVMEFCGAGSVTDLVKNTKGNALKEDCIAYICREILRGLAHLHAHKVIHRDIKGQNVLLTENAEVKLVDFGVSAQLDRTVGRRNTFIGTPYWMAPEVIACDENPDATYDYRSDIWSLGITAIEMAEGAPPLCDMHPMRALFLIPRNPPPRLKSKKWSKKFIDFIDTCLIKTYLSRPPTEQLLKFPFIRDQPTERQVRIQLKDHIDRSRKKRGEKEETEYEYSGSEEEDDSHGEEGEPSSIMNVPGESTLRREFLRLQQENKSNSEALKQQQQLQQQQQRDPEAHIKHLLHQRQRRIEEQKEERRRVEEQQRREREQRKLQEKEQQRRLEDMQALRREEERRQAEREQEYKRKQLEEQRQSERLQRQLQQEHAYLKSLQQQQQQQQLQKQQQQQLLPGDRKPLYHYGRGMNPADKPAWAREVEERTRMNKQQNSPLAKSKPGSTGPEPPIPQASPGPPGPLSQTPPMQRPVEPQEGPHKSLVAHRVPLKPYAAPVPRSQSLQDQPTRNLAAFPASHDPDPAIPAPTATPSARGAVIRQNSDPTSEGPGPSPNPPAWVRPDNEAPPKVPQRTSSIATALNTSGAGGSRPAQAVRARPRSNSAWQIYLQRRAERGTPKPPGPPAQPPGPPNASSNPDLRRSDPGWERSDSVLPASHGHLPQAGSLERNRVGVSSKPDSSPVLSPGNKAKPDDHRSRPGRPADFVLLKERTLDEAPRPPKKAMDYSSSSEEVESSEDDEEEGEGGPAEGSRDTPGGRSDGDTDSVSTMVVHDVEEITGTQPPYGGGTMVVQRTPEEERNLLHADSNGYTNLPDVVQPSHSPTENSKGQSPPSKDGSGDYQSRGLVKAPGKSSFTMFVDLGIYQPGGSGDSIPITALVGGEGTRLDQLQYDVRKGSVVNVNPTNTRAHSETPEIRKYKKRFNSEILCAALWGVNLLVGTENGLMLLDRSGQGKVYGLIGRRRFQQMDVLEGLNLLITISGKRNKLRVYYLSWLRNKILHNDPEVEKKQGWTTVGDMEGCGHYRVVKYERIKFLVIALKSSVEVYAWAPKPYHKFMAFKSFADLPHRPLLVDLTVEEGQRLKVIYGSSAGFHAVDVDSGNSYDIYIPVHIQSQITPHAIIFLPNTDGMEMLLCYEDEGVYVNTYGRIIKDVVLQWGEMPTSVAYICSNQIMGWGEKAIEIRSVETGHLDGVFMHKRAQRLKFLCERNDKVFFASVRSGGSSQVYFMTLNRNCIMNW

[11] = target: Serine/threonine-protein kinase 26 (Homo sapiens) (UniProt Q9P289); assay: Inhibition of MST4 (unknown origin) assessed as remaining activity at 1 uM by Kinome scan method relative to control
[12] = target: Cyclin-dependent kinase 16 (Homo sapiens) (UniProt Q00536); assay: Inhibition of PCTK1 (unknown origin) assessed as remaining activity at 1 uM by Kinome scan method relative to control
Chain of Cyclin-dependent kinase 16 (Homo sapiens) (Q00536 whole entry): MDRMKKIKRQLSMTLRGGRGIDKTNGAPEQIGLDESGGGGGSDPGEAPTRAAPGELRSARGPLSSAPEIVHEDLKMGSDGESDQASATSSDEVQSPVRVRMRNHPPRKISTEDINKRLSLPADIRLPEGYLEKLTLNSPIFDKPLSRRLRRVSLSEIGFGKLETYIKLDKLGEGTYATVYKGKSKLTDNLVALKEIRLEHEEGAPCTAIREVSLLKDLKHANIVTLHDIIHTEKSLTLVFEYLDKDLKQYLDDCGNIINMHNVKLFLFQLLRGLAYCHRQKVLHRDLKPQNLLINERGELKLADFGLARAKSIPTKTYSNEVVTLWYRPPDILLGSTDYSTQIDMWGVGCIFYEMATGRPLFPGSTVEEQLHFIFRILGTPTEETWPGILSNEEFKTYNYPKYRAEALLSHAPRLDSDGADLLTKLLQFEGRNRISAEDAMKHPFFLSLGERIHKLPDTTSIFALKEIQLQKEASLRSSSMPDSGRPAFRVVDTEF

[13] = target: 3-phosphoinositide-dependent protein kinase 1 (Homo sapiens) (UniProt O15530); assay: Inhibition of PDPK1 (unknown origin) assessed as remaining activity at 1 uM by Kinome scan method relative to control
[14] = target: Phosphatidylinositol 3-kinase C2 domain-containing subunit gamma (Homo sapiens) (UniProt O75747); assay: Inhibition of PIK3C2G (unknown origin) assessed as remaining activity at 1 uM by Kinome scan method relative to control
Chain of Phosphatidylinositol 3-kinase C2 domain-containing subunit gamma (Homo sapiens) (O75747 whole entry, the tested form may be a part): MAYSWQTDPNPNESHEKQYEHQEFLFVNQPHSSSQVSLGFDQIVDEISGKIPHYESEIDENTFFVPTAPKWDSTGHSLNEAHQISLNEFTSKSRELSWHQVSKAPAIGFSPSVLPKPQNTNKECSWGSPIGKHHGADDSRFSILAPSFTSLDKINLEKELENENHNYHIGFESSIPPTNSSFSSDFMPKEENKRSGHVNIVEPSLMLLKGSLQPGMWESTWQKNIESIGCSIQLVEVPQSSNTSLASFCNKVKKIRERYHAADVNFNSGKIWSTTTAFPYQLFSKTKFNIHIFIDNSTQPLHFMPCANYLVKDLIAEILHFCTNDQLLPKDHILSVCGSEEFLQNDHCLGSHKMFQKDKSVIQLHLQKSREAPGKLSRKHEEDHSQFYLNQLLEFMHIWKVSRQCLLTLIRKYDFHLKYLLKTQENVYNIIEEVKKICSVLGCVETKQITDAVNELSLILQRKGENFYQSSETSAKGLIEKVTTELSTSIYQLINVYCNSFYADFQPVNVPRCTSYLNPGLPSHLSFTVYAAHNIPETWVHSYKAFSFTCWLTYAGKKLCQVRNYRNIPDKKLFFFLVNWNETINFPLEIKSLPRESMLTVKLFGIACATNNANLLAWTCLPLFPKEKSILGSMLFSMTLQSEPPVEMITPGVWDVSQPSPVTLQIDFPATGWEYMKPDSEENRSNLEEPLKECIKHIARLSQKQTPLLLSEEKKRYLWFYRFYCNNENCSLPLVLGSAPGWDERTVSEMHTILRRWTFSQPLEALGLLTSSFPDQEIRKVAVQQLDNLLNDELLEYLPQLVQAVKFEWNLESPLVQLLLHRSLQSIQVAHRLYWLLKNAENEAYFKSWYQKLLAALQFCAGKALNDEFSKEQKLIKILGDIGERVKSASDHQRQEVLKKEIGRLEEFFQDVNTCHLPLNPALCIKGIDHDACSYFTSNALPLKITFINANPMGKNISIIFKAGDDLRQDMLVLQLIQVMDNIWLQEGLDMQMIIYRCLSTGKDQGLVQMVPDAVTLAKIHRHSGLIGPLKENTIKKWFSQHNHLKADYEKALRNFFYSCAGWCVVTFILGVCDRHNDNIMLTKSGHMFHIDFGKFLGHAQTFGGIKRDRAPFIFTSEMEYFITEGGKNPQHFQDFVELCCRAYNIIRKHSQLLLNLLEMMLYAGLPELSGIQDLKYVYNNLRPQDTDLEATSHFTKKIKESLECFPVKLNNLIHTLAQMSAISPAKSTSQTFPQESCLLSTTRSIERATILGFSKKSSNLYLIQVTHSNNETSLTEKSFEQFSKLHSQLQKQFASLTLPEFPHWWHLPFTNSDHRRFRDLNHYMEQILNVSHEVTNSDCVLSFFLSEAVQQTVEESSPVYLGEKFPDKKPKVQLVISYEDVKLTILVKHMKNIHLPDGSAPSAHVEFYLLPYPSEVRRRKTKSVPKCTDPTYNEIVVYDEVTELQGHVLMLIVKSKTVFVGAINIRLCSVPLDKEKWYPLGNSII

[15] = target: Phosphatidylinositol 4-kinase beta (Homo sapiens) (UniProt Q9UBF8); assay: Inhibition of PIK4CB (unknown origin) assessed as remaining activity at 1 uM by Kinome scan method relative to control
[16] = target: Phosphatidylinositol 5-phosphate 4-kinase type-2 beta (Homo sapiens) (UniProt P78356); assay: Inhibition of PIP5K2B (unknown origin) assessed as remaining activity at 1 uM by Kinome scan method relative to control
[17] = target: Protein kinase C eta type (Homo sapiens) (UniProt P24723); assay: Inhibition of PRKCH (unknown origin) assessed as remaining activity at 1 uM by Kinome scan method relative to control
[18] = target: T2, cGMP-dependent protein kinase 2 (Homo sapiens) (UniProt Q13237); assay: Inhibition of PRKG2 (unknown origin) assessed as remaining activity at 1 uM by Kinome scan method relative to control
T2 sequence (whole entry): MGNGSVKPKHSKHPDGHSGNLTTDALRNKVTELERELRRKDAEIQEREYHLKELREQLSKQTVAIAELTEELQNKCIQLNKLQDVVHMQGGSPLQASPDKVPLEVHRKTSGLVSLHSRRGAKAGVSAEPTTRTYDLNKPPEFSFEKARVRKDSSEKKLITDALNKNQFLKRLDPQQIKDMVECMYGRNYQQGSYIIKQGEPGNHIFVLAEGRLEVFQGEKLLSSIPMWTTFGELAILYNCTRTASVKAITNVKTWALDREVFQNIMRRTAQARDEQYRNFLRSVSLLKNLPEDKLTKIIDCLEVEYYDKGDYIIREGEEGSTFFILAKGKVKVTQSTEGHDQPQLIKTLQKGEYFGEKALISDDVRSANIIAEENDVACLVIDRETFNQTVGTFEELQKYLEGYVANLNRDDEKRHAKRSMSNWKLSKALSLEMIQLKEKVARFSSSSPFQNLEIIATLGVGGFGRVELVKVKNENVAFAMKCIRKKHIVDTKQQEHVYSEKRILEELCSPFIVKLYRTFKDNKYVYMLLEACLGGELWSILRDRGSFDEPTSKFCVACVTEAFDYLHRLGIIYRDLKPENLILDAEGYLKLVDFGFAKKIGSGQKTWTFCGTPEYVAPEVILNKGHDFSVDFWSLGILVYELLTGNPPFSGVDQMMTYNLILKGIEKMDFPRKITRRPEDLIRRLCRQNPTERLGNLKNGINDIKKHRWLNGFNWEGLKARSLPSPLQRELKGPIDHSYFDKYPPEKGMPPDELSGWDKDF

[19] = target: Ribosomal protein S6 kinase alpha-4 (Homo sapiens) (UniProt O75676); assay: Inhibition of C-terminal kinase domain RPS6KA4 (unknown origin) assessed as remaining activity at 1 uM by Kinome scan method relative to control
[20] = target: Myosin light chain kinase family member 4 (Homo sapiens) (UniProt Q86YV6); assay: Inhibition of SgK085 (unknown origin) assessed as remaining activity at 1 uM by Kinome scan method relative to control
Chain of Myosin light chain kinase family member 4 (Homo sapiens) (Q86YV6 whole entry): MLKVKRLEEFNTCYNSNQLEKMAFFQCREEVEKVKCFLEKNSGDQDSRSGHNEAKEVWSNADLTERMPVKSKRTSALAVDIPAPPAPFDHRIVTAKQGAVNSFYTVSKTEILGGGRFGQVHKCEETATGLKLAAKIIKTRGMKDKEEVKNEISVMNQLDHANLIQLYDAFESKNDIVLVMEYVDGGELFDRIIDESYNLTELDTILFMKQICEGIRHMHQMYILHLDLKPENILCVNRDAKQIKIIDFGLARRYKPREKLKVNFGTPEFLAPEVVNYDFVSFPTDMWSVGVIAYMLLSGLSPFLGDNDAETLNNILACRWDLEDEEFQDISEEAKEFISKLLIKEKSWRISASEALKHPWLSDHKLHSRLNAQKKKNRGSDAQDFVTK

[21] = target: Non-receptor tyrosine-protein kinase TNK1 (Homo sapiens) (UniProt Q13470); assay: Inhibition of TNK1 (unknown origin) assessed as remaining activity at 1 uM by Kinome scan method relative to control
[22] = target: Serine/threonine-protein kinase 32C (Homo sapiens) (UniProt Q86UX6); assay: Inhibition of YANK3 (unknown origin) assessed as remaining activity at 1 uM by Kinome scan method relative to control
Chain of Serine/threonine-protein kinase 32C (Homo sapiens) (Q86UX6 whole entry): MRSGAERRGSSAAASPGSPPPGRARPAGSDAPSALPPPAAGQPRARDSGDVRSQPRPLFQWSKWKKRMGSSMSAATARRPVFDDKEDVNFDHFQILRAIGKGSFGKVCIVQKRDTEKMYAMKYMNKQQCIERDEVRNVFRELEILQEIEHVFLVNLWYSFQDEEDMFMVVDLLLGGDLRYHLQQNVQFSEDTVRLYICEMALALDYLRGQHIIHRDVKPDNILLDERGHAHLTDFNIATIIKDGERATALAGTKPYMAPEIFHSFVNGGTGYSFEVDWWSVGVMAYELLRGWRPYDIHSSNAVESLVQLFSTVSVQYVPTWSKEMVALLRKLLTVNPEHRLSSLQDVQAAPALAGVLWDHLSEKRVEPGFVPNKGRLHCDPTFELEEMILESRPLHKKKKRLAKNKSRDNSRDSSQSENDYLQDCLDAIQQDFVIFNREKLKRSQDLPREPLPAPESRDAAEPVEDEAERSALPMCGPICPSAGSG

Row | SMILES | Activity [1] [%] | Activity [2] [%] | Activity [3] [%] | Activity [4] [%] | Activity [5] [%] | Activity [6] [%] | Activity [7] [%] | Activity [8] [%] | Activity [9] [%] | Activity [10] [%] | Activity [11] [%] | Activity [12] [%] | Activity [13] [%] | Activity [14] [%] | Activity [15] [%] | Activity [16] [%] | Activity [17] [%] | Activity [18] [%] | Activity [19] [%] | Activity [20] [%] | further results
1 | Nc1ccccc1Nc1ccc2c(c1)CCc1ccccc1C2=O | 95 | 96 | 91 | 96 | 79 | 80 | 94 | 94 | 72 | 81 | 96 | 98 | 90 | 97 | 91 | 86 | 90 | 91 | 85 | 97 | Activity [21]: 90%; Activity [22]: 96%
2 | O=C1c2ccc(Nc3ccc(F)cc3F)cc2CCc2ccc(OC[C@H](O)CO)cc21 [Skepinone-L] | 100 | 99 | 90 | 100 | 90 | 100 | 100 | 80 | 97 | 100 | 100 | 85 | 100 | 100 | 95 | 100 | 90 | 100 | 100 | 100 | Activity [21]: 79%; Activity [22]: 99%
